Measurements: patent publication EP0942911B1, “BENZOPYRANOPYRROLE AND BENZOPYRANOPYRIDINE ALPHA-1 ADRENERGIC COMPOUNDS” (Abbott Laboratories, priority 1996, dated 1998)
Counter-ions that a name gives are not always drawn. Like-named read-outs stand apart in the source and are kept apart here.

Legend:
Assay in all cases: biochemical
[1] = target: T1, α-1A adrenoreceptor (rat submaxillary gland) (Rattus norvegicus, UniProt P43140); assay type: binding; settings: read-out: Radioligand Binding (Ki, nM) 1A (Rat)
T1 sequence (P43140 1-466): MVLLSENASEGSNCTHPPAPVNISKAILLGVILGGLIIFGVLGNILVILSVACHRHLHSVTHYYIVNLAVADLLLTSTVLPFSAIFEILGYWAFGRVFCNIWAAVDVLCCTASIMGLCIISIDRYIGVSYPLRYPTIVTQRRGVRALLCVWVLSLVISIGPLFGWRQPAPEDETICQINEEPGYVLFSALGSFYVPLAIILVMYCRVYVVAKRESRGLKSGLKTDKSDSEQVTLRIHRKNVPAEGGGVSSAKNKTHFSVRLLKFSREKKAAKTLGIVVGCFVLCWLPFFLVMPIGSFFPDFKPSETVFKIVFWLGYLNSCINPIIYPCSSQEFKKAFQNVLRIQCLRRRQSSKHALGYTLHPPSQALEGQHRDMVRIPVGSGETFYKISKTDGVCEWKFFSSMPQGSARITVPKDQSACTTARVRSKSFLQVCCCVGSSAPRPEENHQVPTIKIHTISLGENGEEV
Procedure, shortened: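 Membranes were prepared from rat submaxillary glands as the α-1A adrenoreceptor source. Competition binding followed Greengrass and Bremner, with bound radioligand measured by scintillation counting.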

α-1a adrenoreceptor = target: T2, α-1a adrenoreceptor (Bos taurus, UniProt P18130); assay type: binding, bovine; settings: read-out: Radioligand Binding (Ki, nM) 1a (Bovine)
T2 sequence (P18130 1-466): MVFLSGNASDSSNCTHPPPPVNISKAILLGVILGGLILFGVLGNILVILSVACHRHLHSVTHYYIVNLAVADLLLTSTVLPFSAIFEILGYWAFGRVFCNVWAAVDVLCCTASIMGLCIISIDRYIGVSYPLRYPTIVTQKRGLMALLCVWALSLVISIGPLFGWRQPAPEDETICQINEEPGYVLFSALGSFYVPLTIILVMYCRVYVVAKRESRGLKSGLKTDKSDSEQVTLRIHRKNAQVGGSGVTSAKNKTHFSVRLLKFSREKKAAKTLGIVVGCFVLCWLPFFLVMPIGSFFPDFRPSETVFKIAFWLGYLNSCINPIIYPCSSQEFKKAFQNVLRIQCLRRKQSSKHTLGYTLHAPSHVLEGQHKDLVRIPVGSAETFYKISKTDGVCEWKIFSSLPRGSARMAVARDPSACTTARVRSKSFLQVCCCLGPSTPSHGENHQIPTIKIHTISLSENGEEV
Procedure, shortened: (§1)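 Radioactivity counted by liquid scintillation after radioligand binding to membranes. Receptors: cloned α-1a, α-1b, α-1d stably expressed in LTK mouse fibroblasts (G418 selection, SV40 early promoter); rat submaxillary gland membranes for pharmacologically defined α-1A.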

α-1b adrenoreceptor = target: T3, α-1b adrenoreceptor (Mesocricetus auratus, UniProt P18841); assay type: binding, hamster; settings: read-out: Radioligand Binding (Ki, nM) 1b (Hamster)
T3 sequence (P18841 1-515): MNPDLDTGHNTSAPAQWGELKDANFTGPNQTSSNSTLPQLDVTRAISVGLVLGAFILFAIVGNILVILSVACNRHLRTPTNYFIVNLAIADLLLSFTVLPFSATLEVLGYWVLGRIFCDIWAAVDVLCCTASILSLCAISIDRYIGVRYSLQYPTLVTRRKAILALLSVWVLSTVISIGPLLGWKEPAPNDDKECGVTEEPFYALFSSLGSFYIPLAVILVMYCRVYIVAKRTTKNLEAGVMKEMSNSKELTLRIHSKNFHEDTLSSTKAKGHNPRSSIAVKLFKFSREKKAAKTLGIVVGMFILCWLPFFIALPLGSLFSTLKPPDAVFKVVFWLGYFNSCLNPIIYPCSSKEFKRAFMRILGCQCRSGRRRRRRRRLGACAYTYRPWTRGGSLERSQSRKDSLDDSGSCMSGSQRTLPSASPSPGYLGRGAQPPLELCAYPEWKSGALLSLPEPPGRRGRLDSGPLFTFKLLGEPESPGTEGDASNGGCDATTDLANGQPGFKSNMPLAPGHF
Procedure, shortened: as §1

[2] = [3H]-prazosin radioligand, rat submaxillary gland membranes
[3] = [3H]-prazosin radioligand, cloned receptor in LTK cell membranes

| SMILES | Ki [1] [nM] | Ki (α-1a adrenoreceptor) [nM] | Ki (α-1b adrenoreceptor) [nM] | Ki [1, 2] [nM] | Ki (α-1a adrenoreceptor; [3]) [nM] | Ki (α-1b adrenoreceptor; [3]) [nM] |
| --- | --- | --- | --- | --- | --- | --- |
| COc1cccc2c1[C@@H]1CN(CCCn3c(=O)[nH]c4c(sc5ccccc54)c3=O)C[C@@H]1CO2.Cl (racemic) [Example 66, 3-[3-((±)-cis-9-Methoxy-1,2,3,3a,4,9b-hexahydro-[1]-benzopyrano[3,4-c]pyrrol-2-yl)propyl]-[1]benzthieno[3,2-d]pyrimidine-2,4(1H,3H)-dione hydrochloride] | 214 | 24.8 | 533 | – | – | – |
| COc1cccc2c1[C@@H]1CCN(CCCCn3c(=O)[nH]c4c(sc5ncccc54)c3=O)C[C@H]1CO2 (racemic) [Example 85, 3-[4-((±)-trans-10-Methoxy-1,3,4,4a,5,10b-hexahydro-2H-[1]-benzopyrano[3,4-c]pyrido-3-yl)butyl]-pyrido[3',2':4,5]thieno[3,2-d]pyrimidine-2,4(1H,3H)-dione dihydrochloride] | – | – | – | 0.419 | 0.336 | 1.89 |
| COc1cccc2c1[C@@H]1CN(CCCCn3c(=O)[nH]c4c(sc5ncc(Cl)nc54)c3=O)C[C@H]1CO2 [Example 13, 3-[4-((3aS,9bR)-trans-9-Methoxy-1,2,3,3a,4,9b-hexahydro-[1]-benzopyrano[3,4-c]pyrrol-2-yl)butyl]-8-chloro-pyrazino[2',3':4,5]thieno[3,2-d]pyrimidine-2,4(1H,3H)-dione hydrochloride] | – | – | – | 0.1 | 0.041 | 2.49 |
| COc1cccc2c1[C@@H]1CN(CCCCn3c(=O)[nH]c4c(sc5cnccc54)c3=O)C[C@H]1CO2 [Example 42, 3-[4-((3aS,9bR)-trans-9-Methoxy-1,2,3,3a,4,9b-hexahydro-[1]-benzopyrano[3,4-c]pyrrol-2-yl)butyl]-pyrido[4',3':4,5]thieno[3,2-d]pyrimidine-2,4(1H,3H)-dione dihydrochloride] | – | – | – | 0.073 | 0.028 | 0.829 |
| COc1cccc2c1[C@@H]1CN(CCCCn3c(=O)[nH]c4c(sc5ncccc54)c3=O)C[C@@H]1CO2 [Example 34, 3-[4-((3aR,9bR)-cis-9-Methoxy-1,2,3,3a,4,9b-hexahydro-[1]-benzopyrano[3,4-c]pyrrol-2-yl)butyl]-pyrido[3',2':4,5]thieno[3,2-d]pyrimidine-2,4(1H,3H)-dione hydrochloride] | – | – | – | 0.474 | 0.079 | 3.37 |
| COc1cccc2c1[C@@H]1CN(CCCCn3c(=O)[nH]c4c(sc5ccnc(OC)c54)c3=O)C[C@H]1CO2 [Example 49, 3-[4-((3aS,9bR)-trans-9-Methoxy-1,2,3,3a,4,9b-hexahydro-[1]-benzopyrano[3,4-c]pyrrol-2-yl)butyl]-9-methoxy-pyrido[3',4':4,5]thieno[3,2-d]pyrimidine-2,4(1H,3H)-dione fumarate] | – | – | – | 0.037 | 0.007 | 0.129 |
| COc1cccc2c1[C@@H]1CN(CCCCn3c(=O)[nH]c4c(sc5ccc(OC(C)C)nc54)c3=O)C[C@H]1CO2 [Example 51, 3-[4-((3aS,9bR)-trans-9-Methoxy-1,2,3,3a,4,9b-hexahydro-[1]-benzopyrano[3,4-c]pyrrol-2-yl)butyl]-8-isopropoxy-pyrido[2',3':4,5]thieno[3,2-d]pyrimidine-2,4(1H,3H)-dione hydrochloride] | – | – | – | 1.19 | 0.064 | 0.868 |
| COc1cccc2c1[C@@H]1CN(CCCCn3c(=O)[nH]c4c(sc5ccnc(Cl)c54)c3=O)C[C@@H]1CO2 [Example 48, 3-[4-((3aR,9bR)-cis-9-Methoxy-1,2,3,3a,4,9b-hexahydro-[1]-benzopyrano[3,4-c]pyrrol-2-yl)butyl]-9-chloro-pyrido[3',4';4,5]thieno[3,2-d]pyrimidine-2,4(1H,3H)-dione hydrochloride] | – | – | – | 0.475 | 0.048 | 5.75 |
| COc1cccc2c1[C@H]1CN(CCCCn3c(=O)[nH]c4c(sc5cccnc54)c3=O)C[C@H]1CO2 [Example 2, 3-[4-((3aS,9bS)-cis-9-Methoxy-1,2,3,3a,4,9b-hexahydro-[1]-benzopyrano[3,4-c]pyrrol-2-yl)butyl]-pyrido[2',3':4,5]thieno[3,2-d]pyrimidine-2,4(1H,3H)-dione hydrochloride] | – | – | – | 0.95 | 0.193 | 9.23 |
| COc1cccc2c1[C@@H]1CN(CCCCn3c(=O)[nH]c4c(sc5ccc(Cl)nc54)c3=O)C[C@@H]1CO2 [Example 37, 3-[4-((3aR,9bR)-cis-9-Methoxy-1,2,3,3a,4,9b-hexahydro-[1]-benzopyrano[3,4-c]pyrrol-2-yl)butyl]-8-chloro-pyrido[2',3':4,5]thieno[3,2-d]pyrimidine-2,4(1H,3H)-dione hydrochloride] | – | – | – | 0.264 | 0.069 | 3.34 |
| COc1cccc2c1[C@@H]1CN(CCCCn3c(=O)[nH]c4c(sc5cccnc54)c3=O)C[C@H]1CO2 [Example 3, 3-[4-((3aS,9bR)-trans-9-Methoxy-1,2,3,3a,4,9b-hexahydro-[1]-benzopyrano[3,4-c]pyrrol-2-yl)butyl]-pyrido[2',3':4,5]thieno[3,2-d]pyrimidine-2,4(1H,3H)-dione hydrochloride] | – | – | – | 0.026 | 0.02 | 0.286 |
| COc1cccc2c1[C@@H]1CN(CCCCn3c(=O)[nH]c4c(sc5nc(-c6ccccc6)cnc54)c3=O)C[C@@H]1CO2 [Example 40, 3-[4-((3aR,9bR)-cis-9-Methoxy-1,2,3,3a,4,9b-hexahydro-[1]-benzopyrano[3,4-c]pyrrol-2-yl)butyl]-7-phenyl-pyrazino[2',3':4,5]thieno[3,2-d]pyrimidine-2,4(1H,3H)-dione hydrochloride] | – | – | – | 22.8 | 3.02 | 33.8 |
| COc1cccc2c1[C@@H]1CN(CCCCn3c(=O)[nH]c4c(sc5cnccc54)c3=O)C[C@@H]1CO2 [Example 29, 3-[4-((3aR,9bR)-cis-9-Methoxy-1,2,3,3a,4,9b-hexahydro-[1]-benzopyrano[3,4-c]pyrrol-2-yl)butyl]-pyrido[4',3':4,5]thieno[3,2-d]pyrimidine-2,4(1H,3H)-dione dihydrochloride] | – | – | – | 0.252 | 0.095 | 3.69 |
| Cl.O=c1[nH]c2c(sc3ccccc32)c(=O)n1CCN1C[C@@H]2COc3ccccc3[C@@H]2C1 (racemic) [Example 69, 3-[2-((±)-cis-1,2,3,3a,4,9b-hexahydro-[1]-benzopyrano[3,4-c]pyrrol-2-yl)ethyl]-[1]benzthieno[3,2-d]pyrimidine-2,4(1H,3H)-dione hydrochloride] | 0.665 | 0.344 | 4.35 | – | – | – |
| COc1ccc2c(c1)OC[C@H]1CN(CCCn3c(=O)[nH]c4c(sc5ccccc54)c3=O)C[C@@H]21.Cl (racemic) [Example 64, 3-[3-((±)-cis-7-Methoxy-1,2,3,3a,4,9b-hexahydro-[1]-benzopyrano[3,4-c]pyrrol-2-yl)propyl]-[1]benzthieno[3,2-d]pyrimidine-2,4(1H,3H)-dione hydrochloride] | 4.2 | 1.63 | 9.3 | – | – | – |
